In US10449157B2, “Process for producing microcapsules comprising an active component encapsulated, protected and stabilised within a protein shell” (Anabio Technologies Limited, priority 2013, dated 2019):

How the values were obtained:
[1] = product literature; cited from earlier work
[2] = Electrophoretic mobility (zeta potential); assay type: physicochemical
[3] = Stability trials of free and encapsulated Creatine in water (HPLC)

Compound | long term stability in water [1] | zeta potential [2] [mV] | Creatine concentration reduced by ([3]; 15 min incubation in water at room temperature) [%] | first-order degradation rate constant ([3]; in water at 25° C.) [per day]
CN(CC(=O)O)C(=N)N.O [CREAPURE, Creatine Monohydrate] | no long term stability |  |  | 
CN(CC(=O)O)C(=N)N.O [commercial Creatine monohydrate, Creatine monohydrate] |  | −2.4 | 66 | 0.0263
